# In patent US12648913B2, “Polymeric nanocarriers and methods of use thereof” (Vanderbilt University, priority 2019, dated 2026):
# Tested on: MDA-MB-231 cells
# Assay: MTS proliferation assay on rigid or compliant substrates
# Type: cell-based, human
# From the text: This motivated the hypothesis that blocking Gli-activity in metastatic breast tumors could obstruct their potential to establish in bone and adopt a bone-destructive phenotype. […] It is important to note the large variability in tumor burden inherent to the intracardiac model as evidenced by the large standard error. Even with this variability in consideration, there is significant tumor burden in the 10% Aln-GANT58 treated mice despite maintenance of high bone area (FIG. 18C). Based on the present inventors' previous studies reporting that both rigid mineralized bone matrix and TGF-β drive Gli2 expression in bone-metastatic cancer cell lines, it was hypothesized that GANT58-BTNP treatment may have a spatially heterogeneous effect on tumor cells that mirrors the spatial variation in Gli2 expression. Therefore, the effect of GANT58-BTNP treatment on tumor cell proliferation was measured by measuring Ki67 via IHC (FIG. 14F). […]
# Proliferation Assay. […] Cell proliferation was determined by MTS assay using the CellTiter 96 Aqueous Non-Radioactive Cell Proliferation Assay kit (Promega) per the manufacturer's instructions. Absorbance values were measured at OD 490 nm on a plate reader and normalized to no cell controls in the respective GelMA coated and uncoated wells.
compound,measurement,setting,value
c1cc(-c2sc(-c3ccncc3)c(-c3ccncc3)c2-c2ccncc2)ccn1 [GANT58],proliferation of cells on compliant substrates,"40 μM GANT58, GelMA gels",not on compliant substrates
same,proliferation of cells on rigid substrates,"40 μM GANT58, tissue culture plastic",significantly reduced
